The source of these data is article PMC8958511, “Development of Sulfamoylated 4-(1-Phenyl-1H-1,2,3-triazol-4-yl)phenol Derivatives as Potent Steroid Sulfatase Inhibitors for Efficient Treatment of Breast Cancer” (Journal of Medicinal Chemistry, 2022).

Values joined by “and” are separate entries in the source; they are usually repeats but may differ in a detail not shown here. Equal values may be shown once. Read-outs that look alike come from different tables or passages of the source.

Series [1] addresses T1, STS isolated from the human placenta (Homo sapiens, UniProt P08842).
T1 construct: radioisotope enzymatic assay using STS isolated from the human placenta; from tissue; host or cells: human placenta
T1 sequence (P08842 22-583): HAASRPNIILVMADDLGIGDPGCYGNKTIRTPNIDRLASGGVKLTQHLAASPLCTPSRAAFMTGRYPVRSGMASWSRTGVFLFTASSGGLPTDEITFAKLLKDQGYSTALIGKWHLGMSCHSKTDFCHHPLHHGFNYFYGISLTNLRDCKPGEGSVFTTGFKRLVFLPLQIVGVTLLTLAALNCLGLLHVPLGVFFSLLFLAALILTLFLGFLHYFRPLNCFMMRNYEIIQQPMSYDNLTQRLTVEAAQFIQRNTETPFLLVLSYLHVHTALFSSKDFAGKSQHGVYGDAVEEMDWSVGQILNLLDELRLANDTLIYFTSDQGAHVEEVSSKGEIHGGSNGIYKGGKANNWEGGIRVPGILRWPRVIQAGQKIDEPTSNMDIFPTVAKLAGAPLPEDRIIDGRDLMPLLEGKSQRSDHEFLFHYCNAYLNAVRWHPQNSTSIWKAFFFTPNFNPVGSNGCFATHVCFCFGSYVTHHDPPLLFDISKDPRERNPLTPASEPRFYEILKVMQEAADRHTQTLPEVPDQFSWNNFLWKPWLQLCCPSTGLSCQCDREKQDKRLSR
The series is described as follows: radioisotope enzymatic assay with STS isolated from human placenta and [3H]E1S. The class given is biochemical.
Procedure: The inhibitory potency of the synthesized compounds was examined in two ways, including an enzymatic assay and the radioisotope cellular test. The enzymatic assay was performed using the STS enzyme isolated from human placenta and using radiolabeled [^3H]E1S as a substrate.
The total volume of the reaction mixture was 100 μL. […] After incubation, the reaction mixture (90 μL) was collected from each well, and the product formed by STS hydrolysis was extracted with toluene (0.5 mL). STS activity was measured using a MicroBeta radioluminometer (PerkinElmer). Enzymatic assays were carried out in triplicate.

Another series addresses T2, STS in MCF-7 cells (Homo sapiens, UniProt P08842).
T2 construct: The radioisotope cellular assay was performed using the MCF-7 cell line; endogenous in cells; host or cells: MCF-7
T2 sequence (P08842 22-583): T1 sequence (P08842 22-583)
The series is described as follows: radioisotope cellular assay with [3H]E1S in MCF-7 cells. The class given is cell-based.

The format of series [2] is in vivo. Conditions: Table S1, MTD study, 50 mg/kg.
Procedure: The mice were thus weighed, and their general health was observed. […] At the end of the study, the mice were sacrificed by dislocation of the cervical vertebrae, and the internal organs were examined macroscopically.
The mice were weighed, and their general health was observed. […] At the end of the MTD study, the autopsy was performed, and the internal organs (liver, kidney, and spleen) were weighed and macroscopically assessed.
The subject of series [3] is 67NR mouse mammary tumor cells. The series is described as follows: antitumor activity in 67NR orthotopic mouse breast carcinoma model. In kind it is in vivo, BALB/c mice. Conditions: 50 mg/kg b.w. per os. How it is done: The tumor volume (TV) and body weight were measured three times a week. Results for individual groups are reported in Figure S5, Supporting Information. Based on TV data, the tumor growth inhibition (TGI) was calculated for groups that received compounds and compared to that of the control group. […] The body weight of the treated animals was monitored during the study, and the body weight change (BWC) index was calculated (Figure 4). […] Body weight loss was observed between D2 and D11 and reached 4.5% at most.
The growth of tumors has been observed.

Series [4] deals with T3, STS activity in murine livers and tumors (Mus musculus, UniProt P50427).
T3 sequence (P50427 23-624): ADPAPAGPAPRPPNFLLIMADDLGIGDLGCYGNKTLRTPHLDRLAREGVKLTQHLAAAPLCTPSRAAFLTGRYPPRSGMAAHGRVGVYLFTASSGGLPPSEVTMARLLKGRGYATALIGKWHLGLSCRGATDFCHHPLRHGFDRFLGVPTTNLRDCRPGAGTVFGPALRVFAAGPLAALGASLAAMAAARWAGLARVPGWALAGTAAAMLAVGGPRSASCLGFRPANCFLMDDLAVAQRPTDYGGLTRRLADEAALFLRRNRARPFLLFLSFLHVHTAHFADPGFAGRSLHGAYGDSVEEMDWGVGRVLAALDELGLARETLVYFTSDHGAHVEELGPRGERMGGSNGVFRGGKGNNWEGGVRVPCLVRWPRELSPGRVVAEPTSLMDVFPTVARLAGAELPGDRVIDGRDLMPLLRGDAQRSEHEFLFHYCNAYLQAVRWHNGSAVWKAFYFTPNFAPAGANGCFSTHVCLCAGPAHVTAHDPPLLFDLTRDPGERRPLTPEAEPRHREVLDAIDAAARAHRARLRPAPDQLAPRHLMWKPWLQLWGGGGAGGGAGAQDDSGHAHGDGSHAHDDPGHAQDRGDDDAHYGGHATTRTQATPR
The series is described as follows: determination of STS activity in murine livers and tumors of treated mice.
Procedure: Then, the samples were subjected to sonication in five cycles of 10 s each and centrifuged for 10 min at 14 000g to pellet the tissue debris. Total protein concentrations were determined in the obtained lysates using the Bradford method, and 100 μg of the total protein was used for each reaction as a source of STS activity. […] E1S (4 × 10^4 Bq, 3 nM) and 20 mM Tris-HCl, pH 7.4. The volume of the reaction mixtures was adjusted to 100 μL with water. After incubation, 60 μL of each reaction mixture was collected, and the product formed by STS hydrolysis was extracted with toluene (0.5 mL). STS activity was measured using a MicroBeta radioluminometer (PerkinElmer). Assays were carried out in triplicate.

A short description of series [5]: blood morphology, blood biochemistry and organ weights of mice with 67NR tumor.
Procedure: At the end of the study, the autopsy of the animals was performed: blood was collected for further analyses of the morphology (Table S2, Supporting Information) and biochemistry (Table S3 and Figure S6, Supporting Information) and for the determination of the plasma estradiol level using the ELISA method.
Mice were injected orthotopically (in the mammary gland fat pad) with 67NR mouse mammary tumor cells derived from in vitro culture (1.5 × 10^5 cells/0.05 mL Hanks fluid/mouse). The growth of tumors has been observed. […] Animals were observed during the next 17 days and euthanized. During observation, body weight and tumor growth were monitored three times a week. The volume of the tumors was calculated according to the following formula: TV = a^2·b/2 [mm^3], (where: a—width and b—length of the tumor). Blood, tumor tissue, and liver were harvested during autopsy for further analyses. Blood aliquots (about 500 μL) were collected in EDTA containing vials for morphology analysis (Mythic 18 analyzer, Orphee), and then, the plasma was collected (centrifuged at 2500g for 15 min at 4 °C within 1 h after collection) for biochemical parameter analysis (Cobas c111, Roche).
The next series concerns STS. Details: method as in earlier work. Conditions: STS inhibitory effect, system not given; ref 14−16; cited from earlier work.
Setting [6] is: Table S2, mice with 67NR tumor, 50 mg/kg.
Setting [7] is: Table S3, plasma, mice with 67NR tumor, 50 mg/kg per os, N=9.

Procedure for STS in MCF-7 cells: All compounds were initially tested for their in cell inhibitory action at a 100 nM concentration.
The inhibitory potency of the synthesized compounds was examined in two ways, including an enzymatic assay and the radioisotope cellular test. […] The radioisotope cellular assay was performed using the MCF-7 cell line in the presence of radiolabeled [^3H]E1S.
The evaluation of the inhibitory effect of each compound with breast cancer cells was performed using a previously described method (27) with some modifications. MCF-7 cells were maintained in Dulbecco’s modified Eagle medium supplemented with 10% fetal bovine serum and cultured in the above medium until 80% confluence. […] After incubation, the medium (0.45 mL) was collected from each well, and the product formed by STS hydrolysis was extracted with toluene (4 mL). STS activity was measured using a MicroBeta radioluminometer (PerkinElmer). Assays with MCF-7 cells were carried out in triplicate.

`NS(=O)(=O)Oc1ccc(-c2cn(-c3cc(F)cc(F)c3)nn2)cc1` [5l, 4-(1-(3,5-difluorophenyl)-1H-1,2,3-triazol-4-yl)phenyl sulfamate]: the “residual STS activity [%]” value in series [1] (0.5 μM inhibitor concentration, substrate [3H]E1S, 3 nM, triplicate) came to 17.34 ± 0.87%. Moreover, the remaining activity at 0.5 µM in series [1] (read-out: residual STS activity [%]) was determined as 17.3%. In addition, the remaining activity at 0.001 µM on STS in MCF-7 cells (MCF7, 20 h, read-out: residual STS activity [%] 1 nM) turned out to be 13.6%. Besides, at STS in MCF-7 cells (MCF7, 20 h, read-out: residual STS activity [%] 10 nM), the remaining activity at 0.01 µM was determined as 1%. Also, the remaining activity at 0.1 µM on STS in MCF-7 cells (MCF7, 20 h, read-out: residual STS activity [%] 100 nM) stood at 1%. Moreover, the IC50 (commonly the concentration that inhibits the measured activity by half) on STS in MCF-7 cells (MCF-7 cells, substrate [3H]E1S, 3 nM) came to 0.21 ± 0.01 nM. In series [2], the GRAN was 10,6±0,2%, the HCT is 42±1,9%, the HGB is listed as 15,4±0,5 g/dL and the LIMF is listed as 86,6±0,2%. For the same compound, in series [2], the MCH is recorded as 17,3±0,1 pg, the MCHC is given as 36,6±0,4 g/dL, the MCV was 47,2±0,2 fL and the MON is 2,9±0,4%. Further, in series [2], the PLT is recorded as 596±64 10x3/uL, the RBC is recorded as 8,9±0,4 10x6/uL, the RDW is on record as 17,3±0,2% and the WBC is 4,2±0,6 10x3/uL. Besides, the “tumor growth inhibition (TGI)” value in series [3] (5 days a week, 67NR tumor, N = 9, vs control group) was 39%. In series [3] (nine mice/group), the “mice responded to the treatment” value was 8 mice, the “mice with much larger tumor than the mean control volume” value turned out to be 1 mice and the “mice with tumor volume reduced by approx. 50% compared to the TV control” value was 3 mice. The “Residual STS activity [%] Liver” value in series [4] (liver tissue of mice treated per os at 50 mg/kg b.w.) was 10,1%. Further, the “Residual STS activity [%] Tumor” value in series [4] (tumor tissue of mice treated per os at 50 mg/kg b.w.) is given as 1,3%. The spleen weight result in series [5] (50 mg/kg b.w. per os, mice with 67NR tumor) is on record as “Significantly smaller spleens weights”. Further, in series [5] (setting [6]), the HCT is on record as 34,7±2,1%, the HGB is given as 13,3±0,8 g/dL, the MCH is given as 17,8±0,3 pg and the MCHC is listed as 38,3±0,4 g/dL. In series [5] (setting [6]), the MCV was 46,4±0,7 fL, the PCT is reported as 0,233±0,035%, the PDW was 29,3±4,6 fL and the PLT is reported as 463,1±74 x103/uL. In addition, in series [5] (setting [6]), the RBC was 7,5±0,5 x106/uL and the RDW is recorded as 18,4±1%. For the same compound, in series [5] (setting [7]), the creatinine was 5,6±1,65 umol/L and the urea is 8,1±0,7 mmol/L.
For `NS(=O)(=O)Oc1ccc2c3c(c(=O)oc2c1)CCCCC3` [Irosustat, reference compound], on STS in MCF-7 cells (MCF-7 cells, 1 nM inhibitor, substrate [3H]E1S, 3 nM, triplicate), the “residual STS activity [%] 1 nM” value is 16.8% and 16.8 ± 0.5%. Further, the “residual STS activity [%] 10 nM” value on STS in MCF-7 cells (MCF-7 cells, 10 nM inhibitor, substrate [3H]E1S, 3 nM, triplicate) was 12.9% and 12.9 ± 0.77%. In addition, the “residual STS activity [%] 100 nM” value at STS in MCF-7 cells (MCF-7 cells, 100 nM inhibitor, substrate [3H]E1S, 3 nM, triplicate) was 2.4% and 2.4 ± 0.07%. For the same compound, in the series with STS, the IC50 was 8 nM.
